Measured values taken from article PMC12562276, “Effects of Intramuscular Vasopressin on Pharmacokinetics and Pharmacodynamics in Healthy Neonatal Piglets: A Dose–Response Study” (Children, 2025).
Where two headings read alike, the source gives them in different places.

Assays:
[1] = Plasma vasopressin concentrations and pharmacokinetics after IV or IM vasopressin; format: in vivo, neonatal piglets; settings: for level at 1 min / level at 5 min / level at 10 min / AUC(0-t): pig, plasma, n = 5/group, median (IQR); for level at 1 min: 1 min after administration; for level at 1 min / level at 5 min / level at 10 min: arterial blood, read-out: Plasma vasopressin concentration; for level at 5 min: 5 min after administration; for level at 10 min: 10 min after administration; for AUC(0-t): neonatal piglets, read-out: Area under the curve from baseline to 10 min (AUC0–10) (converted)
Protocol: (§1) Following surgical instrumentation and stabilization, a consecutively numbered, sealed brown envelope containing the group allocation was opened (Figure 1). Piglets were randomized into three groups: 0.4 IU/kg IV vasopressin 4 IU/kg IM vasopressin, or 8 IU/kg IM vasopressin. Piglets that were randomized to “IM” were administered one dose intramuscularly in the left inner thigh muscle while piglets randomized to “IV” were administered one dose via the femoral venous catheter followed with a 3 mL normal saline bolus. Arterial blood was collected before drug administration (baseline = time point “0 min”), 1, 2, 3, 4, 5, and 10 min after drug administration. Following final collection of blood, piglets were euthanized with an intravenous overdose of sodium pentobarbital and autopsies of IM injection sites were conducted to assess local tissue damage […].
Demographics of study piglets were recorded. Transonic flow probes, heart rate, and pressure transducer outputs, and Millar catheter were digitized and recorded with LabChart® 8.1.30, programming software (ADInstruments, Houston, TX, USA). Plasma vasopressin concentrations and pharmacokinetic parameters were quantified and analyzed as previously described. Reported plasma vasopressin concentrations only represent exogenous arginine vasopressin. Since pigs produce lysine vasopressin, endogenous vasopressin concentrations could not be quantified.
The data are presented as mean (standard deviation—SD) for normally distributed continuous variables and median (interquartile range—IQR) when the distribution was skewed. The data was tested for normality (Shapiro–Wilk and Kolmogorov–Smirnov test) and compared using either Student’s t-test (data normally distributed), Rank Sum if data were skewed, one- and two-way ANOVA with Dunnett post-test, or Fisher’s exact test for categorical variables. Both Hedges’ g and Cliff’s delta (δ) were reported as standardized measures of effect size as appropriate for parametric and non-parametric data, respectively. Pearson or Spearman’s correlations were reported for parametric or non-parametric data, respectively. p-values are 2-sided and p < 0.05 was considered statistically significant. Statistical analyses were performed with SigmaPlot (Systat Software Inc., San Jose, CA, USA) and R version 4.3.2.

dogs = settings: IV vasopressin, cited from earlier work
From the text: In the current study, we determined the optimal IM vasopressin dose to be 8 IU/kg, as there were significant changes in hemodynamics and left ventricular contractile function following its administration, while there were little to no hemodynamic changes following 4 IU/kg IM vasopressin administration. […] Even if IV access can be achieved before two minutes, IV concentra ...

healthy neonatal piglets [2] = test: Autopsy of IM injection sites for local tissue damage; format: in vivo; settings: autopsies post-euthanasia; IM 4 or 8 IU/kg, left inner thigh muscle
Protocol: as §1

[3] = tested on: isolated working rat heart; settings: during normoxia (not during hypoxia); cited from earlier work
From the text: Through its vasoconstrictor effects, vasopressin increases SVR, thereby increasing arterial blood pressure. […] In an anesthetized open-chest dog model, Nakano administered various doses of vasopressin and reported a dose-related relationship between increasing doses and r ...

healthy neonatal piglets [4] = test: Hemodynamic and cardiac function parameters after IV or IM vasopressin; format: in vivo; settings: for Changes in hemodynamic parameters: n = 5
Protocol: Piglets were instrumented as previously described with modifications. Following induction of anesthesia using isoflurane, piglets underwent a tracheostomy for intubation. Pressure-controlled ventilation (Sechrist Infant Ventilator Model IV-100; Sechrist Industries, Anaheim, CA, USA) was commenced at a respiratory rate of 16–20 breaths/min and pressure of 20/5 cmH2O. Oxygen saturation was maintained within 90–100%, while glucose was provided via an IV infusion of 5% dextrose at 10 mL/kg/hr. IV propofol (5–10 mg/kg/h) and morphine (0.1 mg/kg/h) were provided to maintain anaesthesia, and additional IV doses of propofol (1–2 mg/kg) and morphine (0.05–0.1 mg/kg) were administered as needed (i.e., to maintain adequate sedation/pain medication as determined by movement/pain response). Piglets’ normothermic body temperature of 38.5–39.5 °C was maintained with a heating pad and overhead warmer.
5-French Argyle® (Klein-Baker Medical Inc. San Antonio, TX, USA) double-lumen and single-lumen catheters were inserted via the right femoral vein and artery, respectively. The femoral venous catheter was used for administration of fluids and medications and the arterial catheter for continuous arterial blood pressure monitoring in addition to arterial blood gas measurements. A real-time ultrasonic flow probe (2 mm; Transonic Systems Inc., Ithica, NY, USA) encircled the right common carotid artery to measure cerebral blood flow. A Millar® catheter (MPVS Ultra1, ADInstruments, Houston, TX, USA) was inserted into the left ventricle via the left common carotid artery for continuous measurement of stroke volume, ejection fraction, end-diastolic and -systolic volumes, left ventricular pressure, and left ventricular contractile function (dP/dtmax, dP/dtmin).
Following surgical instrumentation, piglets were placed in the supine position and allowed to recover from surgical instrumentation until baseline hemodynamic measures were stable (minimum one hour). Ventilator rate was adjusted to maintain the partial arterial CO2 between 35–45 mmHg, as determined by periodic arterial blood gas analysis. A Hewlett Packard 78833B monitor (Hewlett Packard Co., Palo Alto, CA, USA) was used for the continuous measurement of heart rate, mean systemic arterial pressure (MAP), systemic systolic and diastolic arterial pressure, and percutaneous oxygen saturation throughout the experiment.
Cerebral oxygenation (crSO2) was measured using the Invos^TM Cerebral/Somatic Oximeter Monitor (Invos 5100, Somanetics Corp., Troy, MI, USA), which calculates crSO2 and expresses values as the percentage of oxygenated haemoglobin (oxygenated haemoglobin/total haemoglobin). The sensors were placed on the right forehead of the piglet and secured with wrap and tape. A slim cap provided light shielding. Regional oxygen saturation values were recorded every second at a sample rate of […].
as §1
Demographics of study piglets were recorded. […]

[5] = 0.4 IU/kg IV, anesthetized piglets
[6] = 8 IU/kg IM, anesthetized piglets

SMILES: NC(=O)CC[C@@H]1NC(=O)[C@H](Cc2ccccc2)NC(=O)[C@H](Cc2ccc(O)cc2)NC(=O)[C@@H](N)CSSC[C@@H](C(=O)N2CCC[C@H]2C(=O)N[C@@H](CCCN=C(N)N)C(=O)NCC(N)=O)NC(=O)[C@H](CC(N)=O)NC1=O [vasopressin, arginine vasopressin]
- Plasma concentrations compared with IV vasopressin ([1]; 4 IU/kg IM vs 0.4 IU/kg IV, p < 0.001): significantly lower
- Plasma concentrations compared with IV vasopressin ([1]; 8 IU/kg IM, two minutes after administration): comparable to IV vasopressin
- level at 1 min [1, 5]: 2.2 ng/mL
- level at 5 min [1, 5]: 1.74 ng/mL
- level at 10 min [1, 5]: 1.34 ng/mL
- AUC(0-t) ([1]; 0.4 IU/kg IV): 0.266 ng·h/mL
- AUC(0-t) ([1]; 4 IU/kg IM): 0.155 ng·h/mL
- level at 1 min ([1]; 8 IU/kg IM, anesthetized piglets 1–3 days old, exogenous arginine vasopressin only): 0.39 ng/mL
- level at 5 min [1, 6]: 2.64 ng/mL
- level at 10 min [1, 6]: 2.83 ng/mL
- AUC(0-t) ([1]; 8 IU/kg IM): 0.339 ng·h/mL
- Decrease in cardiac output (dogs; baroreceptor-denervated dogs): −22.8 (3.0) mL/kg min
- Decrease in heart rate (dogs; baroreceptor-denervated dogs): −10 (5) beats/minute
- Decrease in cardiac output (dogs; healthy dogs): −39.2 (3.8) mL/kg min
- Decrease in heart rate (dogs; healthy dogs): −22 (4) beats/minute
- Local tissue damage at the IM injection sites (healthy neonatal piglets [2]): did not reveal any significant local tissue damage
- dP/dtmax [3]: significantly decreased
- Brain oxygen saturation compared to baseline (healthy neonatal piglets [4]; 0.4 IU/kg IV): Significantly lower
- dP/dtmin (healthy neonatal piglets [4]; 0.4 IU/kg IV): no significant changes
- Stroke volume, cardiac output and ejection fraction (healthy neonatal piglets [4]; 0.4 IU/kg IV, 1–3 min after administration): significantly lower
- Stroke volume and cardiac output (healthy neonatal piglets [4]; 0.4 IU/kg IV, one minute after administration): significantly lower
- Carotid blood flow compared with 8 IU/kg IM (healthy neonatal piglets [4]; 0.4 IU/kg IV, throughout the experimental period, p = 0.032): much lower
- Changes in hemodynamic parameters (healthy neonatal piglets [4]; 4 IU/kg IM): failed to produce significant changes
- dP/dtmax (left ventricular contractile function) (healthy neonatal piglets [4]; 8 IU/kg IM): significantly reduced
- dP/dtmin (healthy neonatal piglets [4]; 8 IU/kg IM): no significant changes
- Changes in hemodynamic parameters (healthy neonatal piglets [4]; 8 IU/kg IM): induced significant hemodynamic changes
- MAP, systolic and diastolic pressure (healthy neonatal piglets [4]; 8 IU/kg IM, vs baseline): significant increases
